According to US8101608B2, “Compounds and compositions as protein kinase inhibitors” (IRM LLC, a Delware Limited Corporation, priority 2004, dated 2012):

Columns and labels:
[1] = target: T1, Aurora-A (Homo sapiens, UniProt O14965); assay: Kinase inhibition, Upstate KinaseProfiler radio-enzymatic filter binding assay; format: biochemical
T1 construct: purchased Upstate (KinaseProfiler panel)
T1 sequence (O14965 1-403): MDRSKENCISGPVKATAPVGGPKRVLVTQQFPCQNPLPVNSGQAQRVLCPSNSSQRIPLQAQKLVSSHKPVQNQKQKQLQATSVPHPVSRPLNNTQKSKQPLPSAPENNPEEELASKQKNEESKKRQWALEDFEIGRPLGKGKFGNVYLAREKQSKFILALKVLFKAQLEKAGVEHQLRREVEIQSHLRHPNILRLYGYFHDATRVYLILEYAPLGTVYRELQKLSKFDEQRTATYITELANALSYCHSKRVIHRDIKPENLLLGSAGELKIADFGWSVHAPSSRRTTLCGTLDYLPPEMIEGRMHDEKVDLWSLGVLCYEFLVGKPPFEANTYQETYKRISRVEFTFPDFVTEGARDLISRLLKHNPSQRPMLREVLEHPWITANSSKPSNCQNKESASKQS
Procedure: (§1) Percentage inhibition is calculated for each reaction.

[2] = target: T2, c-RAF (Homo sapiens, UniProt P04049); assay: as above; format: biochemical
T2 construct: "active kinase (0.001-0.01 Units); fused on or other part: Probably an N-terminal GST tag (vendor's product)
T2 sequence (P04049 whole entry Y340D/Y341D, form open, the tested form may be a part): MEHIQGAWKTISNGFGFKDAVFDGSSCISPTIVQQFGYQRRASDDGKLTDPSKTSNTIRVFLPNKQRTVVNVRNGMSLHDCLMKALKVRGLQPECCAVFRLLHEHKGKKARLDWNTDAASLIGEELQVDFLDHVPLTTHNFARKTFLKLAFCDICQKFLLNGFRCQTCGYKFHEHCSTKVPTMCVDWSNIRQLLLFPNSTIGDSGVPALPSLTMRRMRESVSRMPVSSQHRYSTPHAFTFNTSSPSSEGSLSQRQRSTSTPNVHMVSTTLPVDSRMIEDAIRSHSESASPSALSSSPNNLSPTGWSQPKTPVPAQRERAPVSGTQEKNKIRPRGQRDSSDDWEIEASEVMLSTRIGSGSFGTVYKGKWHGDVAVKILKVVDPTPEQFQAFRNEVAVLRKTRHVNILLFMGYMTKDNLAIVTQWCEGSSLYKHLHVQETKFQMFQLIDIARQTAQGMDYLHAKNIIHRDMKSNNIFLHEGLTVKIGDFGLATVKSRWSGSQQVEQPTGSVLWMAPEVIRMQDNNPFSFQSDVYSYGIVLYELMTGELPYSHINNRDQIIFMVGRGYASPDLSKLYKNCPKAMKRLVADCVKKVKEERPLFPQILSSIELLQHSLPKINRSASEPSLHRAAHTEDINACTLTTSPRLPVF
Procedure: as §1

[3] = target: T3, trkC (Homo sapiens, UniProt Q16288); assay: Inhibition of cellular ETV6-NTRK3 dependent proliferation (Ba/F3 EN cells); format: cell-based, murine; details: MTT, read-out: IC50 for TrkC
T3 construct: fused on or other part: P41212 (Transcription factor ETV6)
T3 sequence (Q16288 whole entry, change not shown, the tested form may be a part): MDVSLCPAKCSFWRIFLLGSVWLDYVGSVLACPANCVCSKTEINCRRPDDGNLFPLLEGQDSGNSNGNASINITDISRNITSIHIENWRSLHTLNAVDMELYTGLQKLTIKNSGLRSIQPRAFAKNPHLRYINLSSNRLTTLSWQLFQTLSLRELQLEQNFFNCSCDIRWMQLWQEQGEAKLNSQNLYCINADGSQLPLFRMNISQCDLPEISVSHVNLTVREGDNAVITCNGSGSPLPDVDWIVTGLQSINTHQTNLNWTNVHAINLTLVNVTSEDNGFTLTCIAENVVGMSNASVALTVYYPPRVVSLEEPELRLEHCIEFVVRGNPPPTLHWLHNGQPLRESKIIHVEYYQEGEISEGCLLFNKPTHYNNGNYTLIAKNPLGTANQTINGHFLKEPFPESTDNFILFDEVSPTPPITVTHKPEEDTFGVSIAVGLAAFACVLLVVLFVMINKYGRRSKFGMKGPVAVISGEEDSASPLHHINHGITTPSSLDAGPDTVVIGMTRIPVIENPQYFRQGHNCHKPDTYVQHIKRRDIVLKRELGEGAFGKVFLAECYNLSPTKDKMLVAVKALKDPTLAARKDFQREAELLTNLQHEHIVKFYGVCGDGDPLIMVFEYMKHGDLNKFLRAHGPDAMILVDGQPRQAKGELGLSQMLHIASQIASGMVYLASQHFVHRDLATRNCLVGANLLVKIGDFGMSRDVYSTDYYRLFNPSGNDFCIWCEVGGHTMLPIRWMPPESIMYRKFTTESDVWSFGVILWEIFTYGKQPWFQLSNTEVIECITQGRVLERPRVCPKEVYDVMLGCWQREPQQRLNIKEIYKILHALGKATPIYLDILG
Procedure: The murine cell line used is the Ba/F3 hematopoietic progenitor cell line transformed with ETV6-NTRK3 cDNA (Ba/13 EN). These cells are maintained in RPMI/10% fetal calf serum (RPMI/FCS) supplemented with penicillin 50 μg/mL, streptomycin 50 μg/mL and L-glutamine […]. Untransformed Ba/F3 cells are similarly maintained with the addition of 10% of WEHI conditioned medium as a source of IL3.

IC50 [1]: 15 nM
IC50 [2]: 116 nM
GI50 [3]: 16.7 nM
Compound: Cc1cn(-c2cc(C(=O)Nc3cccc(Nc4ccc5c(c4)NC(=O)/C5=C/c4ccc[nH]4)c3)cc(C(F)(F)F)c2)cn1 [Example 1]
